# Data from patent US6281356A, “Substituted pyrroles” (Hoffmann-La Roche Inc., priority 2000, dated 2001).
# pIC50: −log10 of the molar value. Where a name gives a salt, the structure may show the parent alone.
# Test system: epithelial breast carcinoma cell line (MDAMB-435)
# Test: Antiproliferative activity (growth inhibition, MTT), epithelial breast carcinoma cell line MDAMB-435
# Format: cell-based
# Conditions: Homo sapiens, MDA-MB-435, 120 h, 5 days post drug addition, 0.1% DMSO, read-out: IC50 (growth inhibition of MDAMB-435 cells)
# Description: The epithelial breast carcinoma cell line (MDAMB-435) was purchased from ATCC (American Type Cell Culture Collection) and was grown in culture medium as recommended by ATCC. For analysis of the effect of various compounds of formula I on the growth of these cells, the cells were plated at a concentration of 1500 cells/well in a 96 well tissue culture plate ("test plate"). The day after the cells were plated, the compounds to be analyzed were dissolved in 100% DMSO (dimethyl sulfoxide) to yield at 10 mM stock solution. Each compound was diluted in H2 O to 1 mM and was added to triplicate wells in the first row of a 96 well master plate containing medium to yield a final concentration of 40 μM. The compounds were then serially diluted in medium in the "master plate". The diluted compound(s) were then transferred to test plates containing cells. A row of vehicle "control cells" received DMSO. The final concentration of DMSO in each well was 0.1%. 5 days post drug addition, the plate was analyzed as described below.
# MTT (3-(4-5 methyl thiazole-2-yl)-2,5-diphenyl tetrazolium bromide; thiazolyl blue) was added to each well to yield a final concentration of 1 mg/ml. The plate was then incubated at 37° C. for 21/2-3 hours. The MTT-containing medium was then removed and 50 μl of 100% ethanol was added to each well to dissolve the formazan. The absorbences were then read using an automated plate reader (Bio-tek microplate reader). IC50 s were calculated using the Reed and Munsch equation, see Am. J. Hygiene Vol. 27 pgs. 493-497,1938.
row,Compound,pIC50
1,"Cn1cc(C2=C(c3cn(C)c4cc(C(F)(F)F)ccc34)C(=O)NC2=O)c2ccc(N3CCCC3)cc21 [Example 14h, 3-(1-Methyl-6-pyrrolidin-1-yl-1H-indol-3-yl)-4-(1-methyl-6-trifuloromethyl-1H-indol-3-yl)pyrrole-2,5-dione]",7.10
2,"Cn1cc(C2=C(c3cn(C)c4cc(C(F)(F)F)ccc34)C(=O)NC2=O)c2ccc(N3CCOCC3)cc21 [Example 14e, 3-(1-Methyl-6-morpholin-4-yl-1H-indol-3-yl)-4-(1-methyl-6-trifluoromethyl-1H-indol-3-yl)pyrrole-2,5-dione]",7.30
3,"Cn1cc(C2=C(c3cn(C)c4cc([N+](=O)[O-])ccc34)C(=O)NC2=O)c2ccc(-c3ccns3)cc21 [Example 2m, 3-(6-Isothiazol-5-yl-1-methyl-1H-indol-3-yl)-4-(1-methyl-6-nitro-1H-indol-3-yl)pyrrole-2,5-dione]",8.00
4,CCn1ccnc1-c1ccc2c(C3=C(c4cn(C)c5cc([N+](=O)[O-])ccc45)C(=O)NC3=O)cn(C)c2c1 [Example 2d],6.92
5,"Cn1cc(C2=C(c3cn(C)c4cc(N5CCCCC5)ccc34)C(=O)NC2=O)c2ccccc21 [Example 12l, 3-(1-Methyl-1H-indol-3-yl)-4-(1-methyl-6-piperidin-1-yl-1H-indol-3-yl)pyrrole-2,5-dione]",6.64
6,"COc1ccc2c(C3=C(c4cn(C)c5cc(-c6cncn6C)ccc45)C(=O)NC3=O)cn(C)c2c1 [Example 2b, 3-(6-Methoxy-1-methyl-1H-indol-3-yl)-4-[1-methyl-6-(3-methyl-3H-imidazol-4-yl)-1H-indol-3-yl]pyrrole-2,5-dione]",7.22
7,"COc1ccc2c(C3=C(c4cn(C)c5cc(-n6ccnc6)ccc45)C(=O)NC3=O)cn(C)c2c1 [Example 9, 3-(6-Imidazol-1-yl-1-methyl-1H-indol-3-yl)-4-(6-methoxy-1-methyl-1H-indol-3-yl)-pyrrole-2,5-dione]",7.22
8,"Cn1cc(C2=C(c3cn(C)c4cc([N+](=O)[O-])ccc34)C(=O)NC2=O)c2ccc(N3CCOCC3)cc21 [Example 12a, 3-(1-Methyl-6-morpholin-4-yl-1H-indol-3-yl)-4-(1-methyl-6-nitro-1H-indol-3-yl)pyrrole-2,5-dione]",> 8.00
9,"Cn1cc(C2=C(c3cn(C)c4cc(N5CCCC5)ccc34)C(=O)NC2=O)c2ccc(C#N)cc21 [Example 15, 1-Methyl-3-[4-(1-methyl-6-pyrrolidin-1-yl-1H-indol-3-yl)-2,5-dioxo-2,5dihydro-1H-pyrrole-3-yl]-1H-indole-6-carbonitrile]",> 8.00
10,"Cn1ccnc1-c1ccc2c(C3=C(c4cn(C)c5cc([N+](=O)[O-])ccc45)C(=O)NC3=O)cn(C)c2c1 [Example 2c, 3-[1-Methyl-6-(1-methyl-1H-imidazol-2-yl)-1H-indol-3-yl]-4-(1-methyl-6-nitro-1H-indol-3-yl)pyrrole-2,5-dione]",7.52
11,"Cn1cc(C2=C(c3cn(C)c4cc([N+](=O)[O-])ccc34)C(=O)NC2=O)c2ccc(OCCn3ccnc3)cc21 [Example 17, 3-[6-(2-Imidazol-1-yl-ethoxy)-1-methyl-1H-indol-3-yl]-4-(1-methyl-6-nitro-1H-indol-3-yl)pyrrole-2,5-dione]",7.15
12,"Cn1cc(C2=C(c3cn(C)c4cc([N+](=O)[O-])ccc34)C(=O)NC2=O)c2ccc(-c3ncc[nH]3)cc21 [Example 2o, 3-[6-(1H-Imidazol-2-yl)-1-methyl-1H-indol-3-yl]-4-(1-methyl-6-nitro-1H-indol-3-yl)-pyrrole-2,5-dione]",7.40
13,"Cn1cc(C2=C(c3cn(C)c4cc(-n5cccn5)ccc34)C(=O)NC2=O)c2ccccc21 [Example 8d, 3(1-Methyl-1H-indol-3-yl)-4-(1-methyl-6-pyrazol-1-yl-1H-indol-3-yl)pyrrole-2,5-dione]",7.52
14,"Cn1cc(C2=C(c3cn(C)c4cc(-n5ccnc5)ccc34)C(=O)NC2=O)c2ccc(Br)cc21 [Example 10a, 3-(6-Bromo-1-methyl-1H-indol-3-yl)-4-(6-imidazol-1-yl-1-methyl-1H-indol-3-yl)-pyrrole-2,5-dione]",7.60
15,"Cn1cncc1-c1ccc2c(C3=C(c4cn(C)c5cc([N+](=O)[O-])ccc45)C(=O)NC3=O)cn(C)c2c1 [Example 1, 3-[1-Methyl-6-(3-methyl-3H-imidazol-4-yl)-1H-indol-3-yl]-4-(1-methyl-6-nitro-1H-indol-3-yl)-pyrrole-2,5-dione]",8.30
16,"Cn1cc(C2=C(c3cn(C)c4cc(N5CCOCC5)ccc34)C(=O)NC2=O)c2ccc(C#N)cc21 [Example 13, 1-Methyl-3-[4-(1-methyl-6-morpholin-4-yl-1H-indol-3-yl)-2,5-dioxo-2,5-dihydro-1H-pyrrole-3-yl]-1H-indole-6-carbonitrile]",8.40

row,Compound,pIC50
1,"Cn1cc(C2=C(c3cn(C)c4cc(-c5ccco5)ccc34)C(=O)NC2=O)c2ccccc21 [Example 2g, 3-(6-Furan-2-yl-1-methyl-1H-indol-3-yl)-4-(1-methyl-1H-indol-3-yl)pyrrole-2,5-dione]",7.70
2,"Cn1cc(C2=C(c3cn(C)c4cc([N+](=O)[O-])ccc34)C(=O)NC2=O)c2ccc(-c3cnc[nH]3)cc21 [Example 2f, 3-[6-(3H-Imidazol-4-yl)-1-methyl-1H-indol-3-yl]-4-(1-methyl-6-nitro-3-yl)pyrrole-2,5-dione hydrochloride]",7.70
3,"Cn1cc(C2=C(c3cn(C)c4cc([N+](=O)[O-])ccc34)C(=O)NC2=O)c2ccc(-c3nccs3)cc21 [Example 4c, 3-(1-Methyl-6-nitro-1H-indol-3-yl)-4-(1-methyl-6-thiazol-2-yl-1H-indol-3-yl)pyrrole-2,5-dione]",7.70
4,"Cn1cc(C2=C(c3cn(C)c4cc(-c5nccs5)ccc34)C(=O)NC2=O)c2ccccc21 [Example 4a, 3-(1-Methyl-1H-indol-3-yl)-4-(1-methyl-6-thiazol-2-yl-1H-indol-3-yl)pyrrole-2,5-dione]",7.62
5,"Cn1cc(C2=C(c3cn(C)c4cc([N+](=O)[O-])ccc34)C(=O)NC2=O)c2ccc(-c3ccco3)cc21 [Example 2h, 3-(6-Furan-2-yl-1-methyl-1H-indol-3-yl)-4-(1-methyl-6-nitro-1H-indol-3-yl)pyrrole-2,5-dione]",8.00
6,"Cn1cc(C2=C(c3cn(C)c4cc([N+](=O)[O-])ccc34)C(=O)NC2=O)c2ccc(-c3cncnc3)cc21 [Example 18, 3-(1-Methyl-6-nitro-1H-indol-3-yl)-4-(1-methyl-6-pyrimidin-5-yl-1H-indol-3-yl)pyrrole-2,5-dione]",7.30
7,"Cn1nccc1-c1ccc2c(C3=C(c4cn(C)c5ccccc45)C(=O)NC3=O)cn(C)c2c1 [Example 2k, 3-(1-Methyl-1H-indol-3-yl)-4-[1-methyl-6-(2-methyl-2H-pyrazol-3-yl)-1H-indol-3-yl]pyrrole-2,5-dione]",6.60
8,"Cn1cc(C2=C(c3c[nH]c4cc(N5CCOCC5)ccc34)C(=O)NC2=O)c2ccc(F)cc21 [Example 12n, 3-(6-Fluoro-1-methyl-1H-indol-3-yl)-4-(6-morpholin-4-yl-1H-indol-3-yl)-pyrrole-2,5-dione]",7.92
9,"Cn1cc(C2=C(c3cn(C)c4cc(N5CCOCC5)ccc34)C(=O)NC2=O)c2ccc(Cl)cc21 [Example 14c, 3-(6-Chloro-1-methyl-1H-indol-3-yl)-4-(1-methyl-6-morpholin-4-yl-1H-indol-3-yl)pyrrole-2,5-dione]",8.70
10,"Cn1cc(C2=C(c3cn(C)c4cc(N5CCCC5)ccc34)C(=O)NC2=O)c2ccc(Br)cc21 [Example 14f, 3-(6-Bromo-1-methyl-1H-indol-3-yl)-4-(1-methyl-6-pyrrolidin-1-yl-1H-indol-3-yl)pyrrole-2,5-dione]",8.30
11,"Cn1cc(C2=C(c3cn(C)c4cc(-c5cncnc5)ccc34)C(=O)NC2=O)c2ccccc21 [Example 19, 3-(1-Methyl-1-indol-3-yl)-4-(1-methyl-6-pyrimidin-5-yl-1H-indol-3-yl)pyrrole-2,5-dione]",7.10
12,"Cn1cc(C2=C(c3c[nH]c4cc(N5CCCC5)ccc34)C(=O)NC2=O)c2ccc(Cl)cc21 [Example 12f, 3-(6-Chloro-1-methyl-1H-indol-3-yl)-4-(6-pyrrolidin-1-yl-1H-indol-3-yl)pyrrole-2,5-dione]",> 8.52
13,"Cn1ccnc1-c1ccc2c(C3=C(c4cn(C)c5ccccc45)C(=O)NC3=O)cn(C)c2c1 [Example 4b, 3-(1-Methyl-1H-indol-3-yl)-4-[1-methyl-6-(1-methyl-1H-imidazol-2-yl)-1H-indol-3-yl]-pyrrole-2,5-dione]",7.22
14,"Cn1cc(C2=C(c3cn(C)c4cc(-c5ccns5)ccc34)C(=O)NC2=O)c2ccccc21 [Example 2n, 3-(6-Isothiazol-5-yl-1-methyl-1H-indol-3-yl)-4-(1-methyl-1H-indol-3-yl)-pyrrole-2,5-dione]",7.40
15,"Cn1cc(C2=C(c3cn(C)c4cc(N5CCCC5)ccc34)C(=O)NC2=O)c2ccc(Cl)cc21 [Example 14i, 3-(6-Chloro-1-methyl-1H-indol-3-yl)-4-(1-methyl-6-pyrrolidin-1-yl-1H-indol-3-yl)pyrrole-2,5-dione]",8.00
16,"Cn1cc(C2=C(c3cn(C)c4cc(N5CCOCC5)ccc34)C(=O)NC2=O)c2ccccc21 [Example 11, 3-(1-Methyl-1H-indol-3-yl)-4-(1-methyl-6-morpholin-4-yl-1H-indol-3-yl)pyrrole 2,5-dione]",7.70
